Source: patent publication US20230391845A1, “GLP-1, GIP AND GLUCAGON RECEPTOR TRIPLE AGONISTS” (priority 2020, published 2023)
*1 amine or outer side, *2 acyl side, *3 side chain or, on linkers, in order; H or OH if unused. Where a SMILES comes first, the peptide text is derived from it. Side-chain parts run from the residue outwards. [ ]: non-standard residue; d: D form. The star is where a group is joined. C20 diacid = O=C(O)CCCCCCCCCCCCCCCCCCC(=O)*; γGlu = O=C(O)[C@H](CCC(=O)[*:2])N[*:1]; εLys = N[C@@H](CCCCN[*:1])C(=O)[*:2]; AEEA = NCCOCCOCC(=O)O; Aib = CC(C)(N)C(=O)O

Legend:
[1] = Pharmacokinetic study in minipigs, i.v. administration; parameters: species or system Göttingen minipigs; conditions: female, Göttingen, minipig, in vivo, iv
Description: The purpose of this example is to determine the half-life in vivo of the triple agonists as described herein after i.v. administration to minipigs, i.e. the prolongation of their time in the body and thereby their time of action. This is done in a pharmacokinetic (PK) study, where the terminal half-life of the triple agonist in question is determined. By terminal half-life is generally meant the period of time it takes to halve a certain plasma concentration, measured after the initial distribution phase.
Female Göttingen minipigs were obtained from Ellegaard Göttingen Minipigs (Dalmose, Denmark) approximately 7-14 months of age and weighing from approximately 16-35 kg were used in the studies. The minipigs were housed individually and fed restrictedly once daily with SDS minipig diet (Special Diets Services, Essex, UK).
After at 3 weeks of acclimatisation two permanent central venous catheters were implanted in vena cava caudalis in each animal. The animals were allowed 1 week recovery after the surgery, and were then used for repeated pharmacokinetic studies with a suitable wash-out period between successive dosings.
The animals were fasted for approximately 18 hours before dosing and from 0 to 4 hours after dosing, but had adlibitum access to water during the whole period.
Intravenous injections (the volume corresponding to usually 1.5-2 nmol/kg, for example 0.1 mL/kg) of the triple agonists were given through one catheter, and blood was sampled at predefined time points for up to 14 days post dosing (preferably through the other catheter). Blood samples (for example 0.8 mL) were collected in 8 mM EDTA buffer and then centrifuged at 4° C. and 1942 g for 10 minutes.
Plasma was pipetted into Micronic tubes on dry ice and kept at −20° C. until analysed for plasma concentration of the triple agonists using ELISA, or a similar antibody-based assay, or LCMS. Individual plasma concentration-time profiles were analysed by a non-compartmental model in Phoenix WinNonLin ver. 6.4. (Pharsight Inc., Mountain View, CA, USA), and the resulting terminal half-lives (harmonic mean) determined.

human GLP-1 receptor = biological target: T1, human GLP-1 receptor (Homo sapiens, UniProt P43220); experiment: In vitro functional potency (CRE luciferase; whole cells), human GLP-1R; format: cell-based; conditions: BHK CRE luc2P hGLP-1R whole cells; Table 2; read-out: hGLP-1R CRE Luc EC50
T1 construct: expressed in transfected cells; host or cells: BHK cells (parent line BHKTS13) containing CRE luciferase
T1 sequence (P43220 24-463): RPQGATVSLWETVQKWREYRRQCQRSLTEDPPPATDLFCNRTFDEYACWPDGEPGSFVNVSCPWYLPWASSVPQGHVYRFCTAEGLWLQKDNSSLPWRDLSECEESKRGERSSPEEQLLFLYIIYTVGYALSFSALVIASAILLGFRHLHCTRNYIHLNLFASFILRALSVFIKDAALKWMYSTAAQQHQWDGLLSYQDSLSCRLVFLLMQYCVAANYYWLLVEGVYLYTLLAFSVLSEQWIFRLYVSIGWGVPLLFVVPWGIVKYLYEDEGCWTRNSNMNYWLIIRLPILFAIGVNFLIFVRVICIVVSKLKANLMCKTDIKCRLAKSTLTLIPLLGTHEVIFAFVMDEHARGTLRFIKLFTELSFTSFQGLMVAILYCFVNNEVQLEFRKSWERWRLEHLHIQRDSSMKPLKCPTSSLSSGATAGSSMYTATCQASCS
Description: The purpose of this example is to test the functional activity, or potency, of the compounds in vitro at the human and mouse GLP-1, GIP, and Gcg receptors. The in vitro functional potency is the measure of target receptor activation in a whole cell assay.
In vitro functional potency was determined by measuring the response of the target receptor in a reporter gene assay in individual cell lines. The assay was performed in stably transfected BHK cell lines that expresses one of the following G-protein coupled receptors: human GLP-1 receptor, human GIP receptor, human Gcg receptor, mouse GLP-1 receptor, mouse GIP receptor, or mouse Gcg receptor; and where each cell line contains the DNA for the cAMP response element (CRE) coupled to a promoter and the gene for firefly luciferase (CRE luciferase). When the respective receptor is activated, it results in the production of cAMP, which in turn results in expression of the luciferase protein. When assay incubation is completed, luciferase substrate (luciferin) is added resulting in the enzymatic conversion of luciferin to oxyluciferin and producing bioluminescence. The luminescence is measured as the readout for the assay.
The cells lines used in these assays were BHK cells with BHKTS13 as a parent cell line. The cell lines were derived from a clone containing the CRE luciferase element and were established by further transfection with the respective receptor to obtain the relevant cell line.
The cells were cultured at 37° C. with 5% CO2 in Cell Culture Medium. They were aliquoted and stored in liquid nitrogen. The cells were kept in continuous culture and were seeded out the day before each assay.
GLP-1R and GcgR Cell Culture Medium consisted of DMEM medium with 10% FBS, 500 µg/mL G418, and 300 µg/mL hygromycin. GIPR Cell Culture Medium consisted of DMEM medium with 10% FBS, 400 µg/mL G418, and 300 µg/mL hygromycin. Assay Buffer consisted of DMEM w/o phenol red, 10 mM Hepes, 1× Glutamax, 1% ovalbumin, and 0.1% Pluronic F-68.
• 1) Cells were plated at 5000 cells/well and incubated overnight in the assay plate. • 2) Cells were washed once in DPBS. • 3) Stocks of the test compounds and reference compounds in concentrations ranging from 100-300 pM were diluted 1:150 in Assay Buffer.
The data from the microtiter plate reader was first regressed in an Excel in order to calculate the x-axis, log scale concentrations based on the individual test compound's stock concentration and the dilutions of the assay. […] The software performs a non-linear regression (log(agonist) vs response). A minimum of two replicates was measured for each sample. The reported values are averages of the replicates.

| Structure (SMILES) | half-life [1] [h] | EC50 (human GLP-1 receptor) [pM] |
| --- | --- | --- |
| CC[C@H](C)[C@H](NC(=O)[C@H](CO)NC(=O)[C@H](Cc1ccc(O)cc1)NC(=O)[C@H](CC(=O)O)NC(=O)[C@H](CO)NC(=O)[C@@H](NC(=O)[C@H](Cc1ccccc1)NC(=O)[C@@H](NC(=O)CNC(=O)[C@H](CCC(N)=O)NC(=O)C(C)(C)NC(=O)[C@@H](N)Cc1ccc(O)cc1)[C@@H](C)O)[C@@H](C)O)C(=O)N[C@@H](Cc1ccc(O)cc1)C(=O)N[C@@H](CC(C)C)C(=O)N[C@@H](CC(=O)O)C(=O)N[C@@H](CCCCN)C(=O)N[C@@H](CCCCNC(=O)COCCOCCNC(=O)COCCOCCNC(=O)CC[C@H](NC(=O)CCCCCCCCCCCCCCCCCCC(=O)O)C(=O)O)C(=O)N[C@@H](C)C(=O)N[C@@H](C)C(=O)NC(C)(C)C(=O)N[C@@H](CCC(=O)O)C(=O)N[C@@H](Cc1ccccc1)C(=O)N[C@H](C(=O)N[C@@H](CC(N)=O)C(=O)N[C@@H](Cc1c[nH]c2ccccc12)C(=O)N[C@@H](CC(C)C)C(=O)N[C@@H](CC(C)C)C(=O)N[C@@H](C)C(=O)NCC(=O)NCC(=O)N1CCC[C@H]1C(=O)N[C@@H](CO)C(=O)N[C@@H](CO)C(=O)NCC(=O)N[C@@H](C)C(=O)N1CCC[C@H]1C(=O)N1CCC[C@H]1C(=O)N1CCC[C@H]1C(=O)N[C@@H](CO)C(N)=O)C(C)C [Compound No. 9] (H-Y[Aib]QGTFTSDYSIYLDKK([AEEA-AEEA-γGlu-C20 diacid])AA[Aib]EFVNWLLAGGPSSGAPPPS-NH2) | 103 | 4.4 |
| CC(C)C[C@H](NC(=O)[C@H](CC(C)C)NC(=O)[C@H](Cc1c[nH]c2ccccc12)NC(=O)[C@H](CCC(N)=O)NC(=O)[C@@H](NC(=O)[C@H](Cc1ccccc1)NC(=O)[C@H](CCC(=O)O)NC(=O)C(C)(C)NC(=O)[C@H](C)NC(=O)[C@H](C)NC(=O)[C@H](CCCCN)NC(=O)[C@H](CCCCNC(=O)[C@@H](N)CCCCNC(=O)[C@@H](N)CCCCNC(=O)CC[C@H](NC(=O)CCCCCCCCCCCCCCCCCCC(=O)O)C(=O)O)NC(=O)[C@H](CCC(=O)O)NC(=O)[C@H](CC(C)C)NC(=O)[C@H](Cc1ccc(O)cc1)NC(=O)[C@H](Cc1ccc(O)cc1)NC(=O)[C@H](CO)NC(=O)[C@H](Cc1ccc(O)cc1)NC(=O)[C@H](CC(=O)O)NC(=O)[C@H](CO)NC(=O)[C@@H](NC(=O)[C@H](Cc1ccccc1)NC(=O)[C@@H](NC(=O)CNC(=O)[C@H](Cc1c[nH]cn1)NC(=O)C(C)(C)NC(=O)[C@@H](N)Cc1c[nH]cn1)[C@@H](C)O)[C@@H](C)O)C(C)C)C(=O)N[C@@H](CCC(=O)O)C(=O)NCC(=O)NCC(=O)N1CCC[C@H]1C(=O)N[C@@H](CO)C(=O)N[C@@H](CO)C(=O)NCC(=O)N[C@@H](C)C(=O)N1CCC[C@H]1C(=O)N1CCC[C@H]1C(=O)N1CCC[C@H]1C(=O)N[C@@H](CO)C(N)=O [Compound No. 31] (H-H[Aib]HGTFTSDYSYYLEK([εLys-εLys-γGlu-C20 diacid])KAA[Aib]EFVQWLLEGGPSSGAPPPS-NH2; N-terminus assumed) | 55 | 3 |
| CC[C@H](C)[C@H](NC(=O)[C@H](CO)NC(=O)[C@H](Cc1ccc(O)cc1)NC(=O)[C@H](CC(=O)O)NC(=O)[C@H](CO)NC(=O)[C@@H](NC(=O)[C@H](Cc1ccccc1)NC(=O)[C@@H](NC(=O)CNC(=O)[C@H](Cc1c[nH]cn1)NC(=O)C(C)(C)NC(=O)[C@@H](N)Cc1c[nH]cn1)[C@@H](C)O)[C@@H](C)O)C(=O)N[C@@H](Cc1ccc(O)cc1)C(=O)N[C@@H](CC(C)C)C(=O)N[C@@H](CCC(=O)O)C(=O)N[C@@H](CCCCNC(=O)COCCOCCNC(=O)COCCOCCNC(=O)CC[C@H](NC(=O)CCCCCCCCCCCCCCCCCCC(=O)O)C(=O)O)C(=O)N[C@@H](CCCCN)C(=O)N[C@@H](Cc1ccc(O)cc1)C(=O)N[C@@H](C)C(=O)NC(C)(C)C(=O)N[C@@H](CCC(=O)O)C(=O)N[C@@H](Cc1ccccc1)C(=O)N[C@H](C(=O)N[C@@H](CCC(N)=O)C(=O)N[C@@H](Cc1c[nH]c2ccccc12)C(=O)N[C@@H](CC(C)C)C(=O)N[C@@H](CC(C)C)C(=O)N[C@@H](CCC(=O)O)C(=O)NCC(=O)NCC(=O)N1CCC[C@H]1C(=O)N[C@@H](CO)C(=O)N[C@@H](CO)C(=O)NCC(=O)N[C@@H](C)C(=O)N1CCC[C@H]1C(=O)N1CCC[C@H]1C(=O)N1CCC[C@H]1C(=O)N[C@@H](CO)C(N)=O)C(C)C [Compound No. 39] (H-H[Aib]HGTFTSDYSIYLEK([AEEA-AEEA-γGlu-C20 diacid])KYA[Aib]EFVQWLLEGGPSSGAPPPS-NH2) | 66 | 4.4 |
| CC(C)C[C@H](NC(=O)[C@H](CC(C)C)NC(=O)[C@H](Cc1c[nH]c2ccccc12)NC(=O)[C@H](CCC(N)=O)NC(=O)[C@@H](NC(=O)[C@H](Cc1ccccc1)NC(=O)[C@H](CCC(=O)O)NC(=O)C(C)(C)NC(=O)[C@H](C)NC(=O)[C@H](C)NC(=O)[C@H](CCC(N)=O)NC(=O)[C@H](CCCCNC(=O)[C@@H](N)CCCCNC(=O)[C@@H](N)CCCCNC(=O)CC[C@H](NC(=O)CCCCCCCCCCCCCCCCCCC(=O)O)C(=O)O)NC(=O)[C@H](CCC(=O)O)NC(=O)[C@H](CC(C)C)NC(=O)[C@H](CC(C)C)NC(=O)[C@H](Cc1ccc(O)cc1)NC(=O)[C@H](CO)NC(=O)[C@H](Cc1ccc(O)cc1)NC(=O)[C@H](CC(=O)O)NC(=O)[C@H](CO)NC(=O)[C@@H](NC(=O)[C@H](Cc1ccccc1)NC(=O)[C@@H](NC(=O)CNC(=O)[C@H](Cc1c[nH]cn1)NC(=O)C(C)(C)NC(=O)[C@@H](N)Cc1c[nH]cn1)[C@@H](C)O)[C@@H](C)O)C(C)C)C(=O)N[C@@H](CCC(=O)O)C(=O)NCC(=O)NCC(=O)N1CCC[C@H]1C(=O)N[C@@H](CO)C(=O)N[C@@H](CO)C(=O)NCC(=O)N[C@@H](C)C(=O)N1CCC[C@H]1C(=O)N1CCC[C@H]1C(=O)N1CCC[C@H]1C(=O)N[C@@H](CO)C(N)=O [Compound No. 42] (H-H[Aib]HGTFTSDYSYLLEK([εLys-εLys-γGlu-C20 diacid])QAA[Aib]EFVQWLLEGGPSSGAPPPS-NH2; N-terminus assumed) | 66 |  |
